Measurements reported in patent publication US20220411397A1, “ANALOGUES OF N-ACYL-HOMOSERINE LACTONES AND PHARMACEUTICAL COMPOSITION COMPRISING SAME” (SORBONNE UNIVERSITE, priority 2019, published 2022).

Experiments:
Raw 264.7 murine cells = assay: Stimulation of Raw 264.7 murine cells by IFN-γ/LPS, IL-6 secretion (ELISA); assay type: cell-based; conditions: for activity on IFN-γ/LPS-stimulated Raw 264.7 cells compared with natural 3-oxo-C12-HSL: 1-50 μM range
Description: 1.1.2. The Raw 264.7 Cell Line • The Raw 264.7 cell line consists of murine cells of macrophage type derived from cell line transformed by the virus of the Abelson leukaemia and providing from BALB/c mice. This cell line is very often used as a model of macrophages in vitro. The Raw 264.7 cells are capable of a phagocytosis and a pinocytosis, can kill the target cells by antibody-dependent cytotoxicity, and secrete a wide range of inflammatory cytokines as well as nitric oxide (NO). In addition, the Raw 264.7 cells are a very convenient cell line: the cells grow rapidly, appreciate the small diameter wells, and should be used before confluence. These conditions make it an advantageous line for the compound screening.
The cells were used between the passages 13 and 26. • The Raw 264.7 cells used are from the ATCC bank. They were grown in DMEM supplemented with 10% heat-inactivated foetal calf serum and 1% L-glutamine to 200 mM, and maintained at 37° C. with a 5% CO2/air atmosphere. The medium was changed every two days.
1.2.2. Stimulation of Raw 264.7 with LIPS and IFN-γ • Raw 264.7 cells were seeded in 12-well plates at 75,000 cells/well, or 24-well plates at 40,000 cells/well, to reach 80-90% confluence after 3 days of culture. […] The cells were harvested by scraping in 100 μL of PBS 1×/well and stored at −80° C. before the quantification of the total protein. […]
1.2.5. Quantification of the Murine Cytokines • The levels of IL-6 murine cytokines produced by cells were determined in cell supernatants or lysates using the commercially available “BD OptEIA Mouse IL-6 ELISA Set” from BD Biosciences (San Jose, Calif., USA, ref. 555240). All the ELISA kits were used according to the instructions of the manufacturer. • The cytokine rates were first normalized to the protein content determined in the corresponding cell lysates. […]

LasR receptor = target: T1, LasR receptor (Pseudomonas aeruginosa, UniProt P25084); assay: Activation of the LasR receptor on bacterial reporter strain E. coli pSB1075 (bioluminescence); assay type: cell-based
T1 construct: expressed in transfected cells; host or cells: Escherichia coli carrying plasmid pSB1075
T1 sequence (P25084 whole entry): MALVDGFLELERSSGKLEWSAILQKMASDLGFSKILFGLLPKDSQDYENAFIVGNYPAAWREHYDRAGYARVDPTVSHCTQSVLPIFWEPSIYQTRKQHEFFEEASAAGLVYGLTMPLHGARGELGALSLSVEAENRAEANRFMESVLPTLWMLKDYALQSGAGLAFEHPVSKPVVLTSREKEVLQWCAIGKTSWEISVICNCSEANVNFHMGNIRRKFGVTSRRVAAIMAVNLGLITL
Description: 1.1.3. The Bacterial Reporter Strain E. coli pSB1075 • A bacterial reporter strain of the Quorum Sensing was used to study the ability of the molecules to be recognized by the Pseudomonas aeruginosa AHL receptor (LasR) and induce an activation. […] This bioluminescent strain was modified by addition of a plasmid pSB1075. This plasmid contains genes encoding both tetracycline resistance and the expression of the LasR AHL receptor from the Pseudomonas aeruginosa bacteria, as well as a fusion gene derived from the LasR promoter and the luxCDABE gene from Photorhabdus luminescence. The bacterial strain was grown in the LB medium supplemented with 5 μg/ml tetracycline to exert a selection pressure and ensure that only the desired strain was amplified. The fusion gene included in the plasmid gives the bacteria the ability to emit a bioluminescence when the LasR receptor is activated, and provides the user with a robust test for the molecular screening. […] On day 1, the culture was diluted 1:100 (P1) in 10 ml of LB medium supplemented with 5 μg/ml tetracycline and maintained for 24 hours at 37° C. under stirring at 70 rpm. On day 2, the experiment took place: a bacterial suspension extemporaneously diluted 1:10 in LB medium supplemented with 5 μg/ml tetracycline (P2) was dispensed into a black opaque 96-well plate and incubated for 4 hours with a range of AHL concentrations or controls until the resulting luminescence was read at the end point. All experiments were performed in triplicates.
1.3. […] This bioluminescent strain was developed by the addition of a plasmid pSB1075 containing genes encoding the tetracycline resistance and the expression of the LasR AHL receptor, as well as a fusion gene of the LasR promoter and the luxCDABE gene of Photorhabdus luminescence. • On day 1, a 1/100 dilution of the bacterial strain (P1) was grown for 24 hours at 37° C. under stirring (70 rpm) in a LB medium containing 5 μg/ml tetracycline (pressure selective). On day 2, P1 was diluted 1:10 in the same medium to obtain P2. In a black 96-well plate were placed 200 μL of P2 and 10 μL of the short chain compound (medium, water and DMSO for the negative controls, C4-HSL as positive control, and the test sample at the desired concentration). The plate was incubated for 4 hours at 37° C. under stirring at 70 rpm. […] After that, the incubation was continued according to the conventional protocol, with the test compound at the desired concentrations.

SMILES	activity on IFN-γ/LPS-stimulated Raw 264.7 cells compared with natural 3-oxo-C12-HSL (Raw 264.7 murine cells)	EC50 (LasR receptor) [µM]	activity on IFN-γ/LPS-stimulated Raw 264.7 cells compared with natural 3-oxo-C12 HSL (Raw 264.7 murine cells; 10-50 μM range)
CCCCCCCCCC(=O)CC(=O)N[C@H]1CCCC[C@H]1O [I-4, N-[(1S,2R)-2-hydroxycyclohexyl]-3-oxo-dodecanamide]	a higher activity than the natural 3-oxo-C12 HSL	200	–
CCCCCCCCCC(=O)CC(=O)N[C@H]1CCCC[C@@H]1O [I-2, N-[(1S,2S)-2-hydroxycyclohexyl]-3-oxo-dodecanamide]	more active than the reference molecule 3-oxo-C12-HSL	0.165	–
CCCCCCCCCC(=O)CC(=O)Nc1cc(Cl)ccc1O [I-6, N-(5-chloro-2-hydroxyphenyl)-3-oxododecanamide]	–	> 1000	a significantly higher activity than that of the natural 3-oxo-C12 HSL
